Earlier results as cited in patent US10815533B2, “Biomarker for diagnosing anticancer drug resistance of gastric cancer and use thereof” (SAMSUNG LIFE PUBLIC WELFARE FOUNDATION, priority 2017, dated 2020).

Assays:
[1] = tested on: gastric cancer cell line in which FGFR2 was amplified; conditions: preclinical result
FGFR2b+gastric cancer = conditions: phase I clinical trial, 3 out of 9

| Molecule | antitumor efficacy [1] | response rate (FGFR2b+gastric cancer) [%] |
| --- | --- | --- |
| CCN1CCN(c2ccc(Nc3cc(N(C)C(=O)Nc4c(Cl)c(OC)cc(OC)c4Cl)ncn3)cc2)CC1 [BGJ398] | strong antitumor efficacy | – |
| FPA144: selective monoclonal antibody against the FGFR2b subtype (antibody, chains of the INN, looked up, V domains shown) VH: QVQLVQSGAEVKKPGSSVKVSCKASGYIFTTYNVHWVRQAPGQGLEWIGSIYPDNGDTSYNQNFKGRATITADKSTSTAYMELSSLRSEDTAVYYCARGDFAYWGQGTLVTVSS VL: DIQMTQSPSSLSASVGDRVTITCKASQGVSNDVAWYQQKPGKAPKLLIYSASYRYTGVPSRFSGSGSGTDFTFTISSLQPEDIATYYCQQHSTTPYTFGQGTKLEIK | – | 33 |
